Reference: ChEMBL document CHEMBL1201862, “PubChem BioAssay data set” (2004)
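Test compounds were applied to cells in 96-well plates for 48 hours at 5 doses. GI50 is the concentration that inhibits growth by half.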 Calls of active or inactive are those of the source. Cut-off read from the data, not from the text of the source: active = GI50 up to about 1.1 µM and inactive = higher.

Key:
Assay in all cases: NCI tumour cell line growth inhibition, 48 h
EKVX = system: EKVX
HCT-15 = system: HCT-15
HOP-62 = system: HOP-62
HOP-92 = system: HOP-92
HT-29 = system: HT-29
LOX IMVI = system: LOX IMVI
M14 = system: M14
Malme-3M = system: Malme-3M
NCI-H460 = system: NCI-H460
OVCAR-5 = system: OVCAR-5
OVCAR-8 = system: OVCAR-8
PC-3 = system: PC-3
RPMI-8226 = system: RPMI-8226
SF-295 = system: SF-295
SK-MEL-28 = system: SK-MEL-28
SNB-75 = system: SNB-75
SW-620 = system: SW-620
UACC-257 = system: UACC-257
UO-31 = system: UO-31

| Structure (SMILES) | GI50 (EKVX) | GI50 (HCT-15) [µM] | GI50 (HOP-62) | GI50 (HOP-92) | GI50 (HT-29) | GI50 (LOX IMVI) | GI50 (M14) | GI50 (Malme-3M) | GI50 (NCI-H460) | GI50 (OVCAR-5) | GI50 (OVCAR-8) | GI50 (PC-3) | GI50 (RPMI-8226) | GI50 (SF-295) | GI50 (SK-MEL-28) | GI50 (SNB-75) | GI50 (SW-620) | GI50 (UACC-257) | GI50 (UO-31) |
| --- | --- | --- | --- | --- | --- | --- | --- | --- | --- | --- | --- | --- | --- | --- | --- | --- | --- | --- | --- |
| COC(=O)/C=C\COCC1C2CCC(=O)C21 (configuration not stated) | 9.16 µM (inactive) | 9.57 | > 25 µM (inactive) | 5.77 µM (inactive) | 6.05 µM (inactive) | 14.5 µM (inactive) | 8.36 µM (inactive) | 4.67 µM (inactive) | 6.79 µM (inactive) | > 25 µM (inactive) | > 25 µM (inactive) | > 25 µM (inactive) | 11 µM (inactive) | > 25 µM (inactive) | > 25 µM (inactive) | > 25 µM (inactive) | 7.93 µM (inactive) | 10.4 µM (inactive) | 11.6 µM (inactive) |
| C[C@]12CC[C@H](O)C=C1CC[C@@H]1[C@@H]2CC[C@]2(C)C(=N/O)/C(=C/c3ccncc3)C[C@@H]12 | 16.4 µM (inactive) | 5.19 | 13.2 µM (inactive) | 7.48 µM (inactive) | 4.04 µM (inactive) | 11.5 µM (inactive) | 5.7 µM (inactive) | 17.5 µM (inactive) | 6.1 µM (inactive) | 19.2 µM (inactive) | 16 µM (inactive) | 2.65 µM (inactive) | 3.78 µM (inactive) | 12.2 µM (inactive) | 19.7 µM (inactive) | 14.4 µM (inactive) | 23 µM (inactive) | 7.67 µM (inactive) | 3.68 µM (inactive) |
| CC1=NC(C)(C)N(O)C1(C)C | > 100 µM (inactive) | > 100 | > 100 µM (inactive) | > 100 µM (inactive) | > 100 µM (inactive) | > 100 µM (inactive) | > 100 µM (inactive) | > 100 µM (inactive) | > 100 µM (inactive) | > 100 µM (inactive) | > 100 µM (inactive) | > 100 µM (inactive) | > 100 µM (inactive) | > 100 µM (inactive) | > 100 µM (inactive) | > 100 µM (inactive) | > 100 µM (inactive) | – | > 100 µM (inactive) |
| COC(=O)C(C)(C)[C@@H]1OC(=O)N(S(=O)(=O)c2c(C)cc(C)cc2C)[C@H]1C(C)C | > 100 µM (inactive) | > 100 | > 100 µM (inactive) | 23.1 µM (inactive) | 65.8 µM (inactive) | 78 µM (inactive) | 88.1 µM (inactive) | > 100 µM (inactive) | 55 µM (inactive) | > 100 µM (inactive) | > 100 µM (inactive) | 32.7 µM (inactive) | > 100 µM (inactive) | > 100 µM (inactive) | > 100 µM (inactive) | 41 µM (inactive) | 82.2 µM (inactive) | 60.3 µM (inactive) | > 100 µM (inactive) |
| CCOc1cc(C2SCC(=O)N2c2ccc3c(c2)Oc2c(Cl)c4c(c(Cl)c2=N3)Oc2cc(N3C(=O)CSC3c3ccc(O)c(OCC)c3)ccc2N=4)ccc1O (configuration not stated) | 37.2 µM (inactive) | 43.1 | 31.6 µM (inactive) | 24.5 µM (inactive) | 39.8 µM (inactive) | 35.2 µM (inactive) | 27.2 µM (inactive) | – | 30.6 µM (inactive) | > 100 µM (inactive) | 32.7 µM (inactive) | 48.6 µM (inactive) | 31.8 µM (inactive) | 38.9 µM (inactive) | 37.8 µM (inactive) | 21.4 µM (inactive) | 54.7 µM (inactive) | 80.9 µM (inactive) | 68.1 µM (inactive) |
| Cc1ccc(C(=O)/C=C(\O)C(=O)NN=C(c2ccccc2)c2ccccc2)cc1 | > 100 µM (inactive) | 39 | – | 28 µM (inactive) | > 100 µM (inactive) | 12.2 µM (inactive) | > 100 µM (inactive) | > 100 µM (inactive) | 40.6 µM (inactive) | > 100 µM (inactive) | 76.4 µM (inactive) | 40.2 µM (inactive) | 26.6 µM (inactive) | 66.8 µM (inactive) | > 100 µM (inactive) | 82.4 µM (inactive) | 50.5 µM (inactive) | > 100 µM (inactive) | 55.6 µM (inactive) |
| CCSC1=N/C(=C\c2ccco2)C(Cl)=N1 | > 100 µM (inactive) | > 100 | > 100 µM (inactive) | > 100 µM (inactive) | > 100 µM (inactive) | > 100 µM (inactive) | > 100 µM (inactive) | – | > 100 µM (inactive) | > 100 µM (inactive) | > 100 µM (inactive) | > 100 µM (inactive) | > 100 µM (inactive) | > 100 µM (inactive) | > 100 µM (inactive) | > 100 µM (inactive) | > 100 µM (inactive) | > 100 µM (inactive) | > 100 µM (inactive) |
| O=c1cc(O)c2ccccc2o1 [4-HYDROXYCOUMARINS] | > 100 µM (inactive) | – | > 100 µM (inactive) | > 100 µM (inactive) | > 100 µM (inactive) | > 100 µM (inactive) | > 100 µM (inactive) | > 100 µM (inactive) | > 100 µM (inactive) | > 100 µM (inactive) | > 100 µM (inactive) | > 100 µM (inactive) | > 100 µM (inactive) | > 100 µM (inactive) | > 100 µM (inactive) | > 100 µM (inactive) | > 100 µM (inactive) | > 100 µM (inactive) | > 100 µM (inactive) |
| CC(C)(C)OC(=O)N[C@H]1CCN(C2CCCCC2)C1=O | > 100 µM (inactive) | > 100 | > 100 µM (inactive) | > 100 µM (inactive) | – | > 100 µM (inactive) | > 100 µM (inactive) | – | > 100 µM (inactive) | > 100 µM (inactive) | > 100 µM (inactive) | > 100 µM (inactive) | > 100 µM (inactive) | – | > 100 µM (inactive) | > 100 µM (inactive) | > 100 µM (inactive) | – | > 100 µM (inactive) |
| Cc1cccc(-c2nc3ccc([N+](=O)[O-])cc3c(=O)o2)c1 | – | 74.3 | 46.1 µM (inactive) | 16 µM (inactive) | 62.4 µM (inactive) | 26.2 µM (inactive) | – | 51.4 µM (inactive) | 51.8 µM (inactive) | > 100 µM (inactive) | 46.7 µM (inactive) | 58.5 µM (inactive) | 45.6 µM (inactive) | 36.1 µM (inactive) | > 100 µM (inactive) | > 100 µM (inactive) | 73.3 µM (inactive) | 64.3 µM (inactive) | 43.8 µM (inactive) |
| CSC1=N/C(=C\c2c[nH]c3ccccc23)C(=O)N1 | – | 75.3 | 76.9 µM (inactive) | > 100 µM (inactive) | 31.6 µM (inactive) | 78.3 µM (inactive) | 73.6 µM (inactive) | 36.1 µM (inactive) | 49.7 µM (inactive) | > 100 µM (inactive) | > 100 µM (inactive) | 44.7 µM (inactive) | 77.4 µM (inactive) | – | > 100 µM (inactive) | 27.7 µM (inactive) | > 100 µM (inactive) | > 100 µM (inactive) | 35.8 µM (inactive) |
| O=C(O[C@@H](/C=C/c1ccccc1)P1(=O)N(Cc2ccccc2)[C@@H]2CCCC[C@H]2N1Cc1ccccc1)c1ccccc1 | 3.98 µM (inactive) | 2.99 | 6.79 µM (inactive) | 1.71 µM (inactive) | 3.44 µM (inactive) | 3.15 µM (inactive) | 3.66 µM (inactive) | 3.6 µM (inactive) | 3.53 µM (inactive) | 4.86 µM (inactive) | 3.63 µM (inactive) | 3.31 µM (inactive) | 2 µM (inactive) | 3.55 µM (inactive) | 6.92 µM (inactive) | – | 3.66 µM (inactive) | 8.75 µM (inactive) | 3.4 µM (inactive) |
| COc1ccc(/C=C2\NC(=S)N(/C=C3\C(=O)Oc4ccccc4C3=O)C2=O)cc1OC | 54.5 µM (inactive) | 93.5 | > 100 µM (inactive) | 73.6 µM (inactive) | > 100 µM (inactive) | > 100 µM (inactive) | > 100 µM (inactive) | – | > 100 µM (inactive) | > 100 µM (inactive) | > 100 µM (inactive) | > 100 µM (inactive) | > 100 µM (inactive) | > 100 µM (inactive) | – | 32.4 µM (inactive) | > 100 µM (inactive) | > 100 µM (inactive) | 54.6 µM (inactive) |
| O=C1CCCCC/C1=C\c1cccc(Cl)c1 | 50.9 µM (inactive) | 32.2 | > 100 µM (inactive) | 35.6 µM (inactive) | 38.6 µM (inactive) | 41.5 µM (inactive) | 32.4 µM (inactive) | 42.9 µM (inactive) | 29.6 µM (inactive) | > 100 µM (inactive) | – | 22.5 µM (inactive) | 20 µM (inactive) | 20 µM (inactive) | 49.4 µM (inactive) | 48.5 µM (inactive) | 20.8 µM (inactive) | 42.1 µM (inactive) | 24.1 µM (inactive) |
| Clc1ccc(/N=C/c2cc3cc(Br)ccc3nc2Cl)cc1 | 29.6 µM (inactive) | 14.2 | – | > 50 µM (inactive) | 16 µM (inactive) | 6.18 µM (inactive) | 14.4 µM (inactive) | > 50 µM (inactive) | 18.1 µM (inactive) | > 50 µM (inactive) | 28.1 µM (inactive) | 15.7 µM (inactive) | 13.2 µM (inactive) | – | 46.5 µM (inactive) | > 50 µM (inactive) | 14.2 µM (inactive) | 34.1 µM (inactive) | 36.8 µM (inactive) |
| O=c1oc(-c2ccc(O)c(O)c2)cc2cccc(O)c12 [THUNBERGINOL A] | 14.1 µM (inactive) | 4.99 | 15.2 µM (inactive) | 2.07 µM (inactive) | – | – | 19.5 µM (inactive) | 31.3 µM (inactive) | 13.4 µM (inactive) | 22 µM (inactive) | 36.6 µM (inactive) | 11.1 µM (inactive) | 10.5 µM (inactive) | 27.5 µM (inactive) | – | 23.1 µM (inactive) | 21.1 µM (inactive) | 22.6 µM (inactive) | 14.7 µM (inactive) |
